In one data set the test system is Akt. Briefly: p-Akt level after 6-OHDA, Western blot. Format: cell-based, Human. The protocol: After treatment, SH-SY5Y cells were washed three times with PBS and then lysis with RIPA lysis buffer containing 1% PMSF and 1% Protease Inhibitor Cocktail and incubated for 30 min on ice. Cell lysates were centrifuged at 12,500 g for 20 min at 4° C. The supernatant was separated and the amount of protein was determined using the BCA protein assay kit (Thermo Scientific Pierce, USA). Protein samples (30 μg) were separated by SDS-PAGE (10% (w/v)) polyacrylamide gel and then transferred to a polyvinylidene difluoride (PVDF) membrane (Bio-Rad, Hercules, Calif.). Subsequently, the membrane was blocked with 5% (v/v) non-fat milk in PBST (PBS containing 0.1% Tween 20) for 1 h at room temperature. The blots were incubated overnight at 4° C. with primary antibodies. After three washes with PBST, the membranes were incubated with horseradish peroxidase-conjugated secondary antibodies (1:2000) in PBST with 5% non-fat milk for 1 h at room temperature. […] Quantitative assessment of protein bands was done with Gel Doc™ XRS equipped with Quantity One software.
The inventors also investigated the contribution of the Akt pathway in the neuroprotective effects of SchiA. The inventors measured phosphorylation-Akt (p-Akt) levels after pre-treated with 60 μM SchiA for 12 h and then exposed to 400 μM 6-OHDA for another 4 h (FIGS. 6A and 6B). […]
On the technique in general: A western blot detects proteins with antibodies after separation by electrophoresis.

Data set [1] is described as follows: Blood brain barrier experiment. Format: in vivo, rat. The procedure:
To investigate the capability of permeation of blood brain barrier (BBB). On the experimental day, heart perfusion was chosen to clear blood interference at brain under 10% chloralic hydras (i.p. 250 mg/kg) anesthesia, and brain was collected at scheduled time after dosing.
Brain tissues were thawed and homogenized in precooled saline (at the 1:2 g:ml ratio). 250 μl of homogenized solution was added 200 μl acetonitrile and 150 μl methanol. After vortexing for 20 s, centrifugations at 12,000 rpm for 10 min were for the separation. The denatured protein was separated and the supernatant was collected and filtered through a 0.22 μm membrane. A 20 μl volume of the supernatant was injected into HPLC for analysis.
Quantitative analysis of SchiA was completed on an Agilent series 1260 HPLC apparatus (Agilent Technologies, Santa Clara, Calif., USA) equipped with a vacuum degasser, a quaternary pump, a manual sampler and an ultraviolet detector. RP Phenonenex C-18 column (250 mm×4.6 mm, 5 μm) was used to separate at 35° C. with a mobile phase of water and methanol (83:17, v/v). The flow rate was 1 ml/min. The monitoring wavelength of SchiA was 230 nm.
And then non-compartmental model of DAS 2.0 program was chosen to calculate the major pharmacokinetic parameters.
The treatment of brain disorders drugs should pass through the blood-brain barrier (BBB) to regulate certain receptors in the CNS for producing effect. Thus the inventors examined whether SchiA could pass BBB. […] Generally, drug distribution was depends on the free drug concentration in plasma which could affect the supply to the target disuse. […] P-gp, functioning as an ATP-dependent drug pump, efficiently extrudes intracellular drugs out of cells, especially anticancer drugs. After oral administrated to plasma, lots of SchiA were combined at intestines and hardly entered into brain by passing through the barrier of P-gp. But after an i.v. bolus injection, SchiA which liked an impact was directly entered into systemic circulation and P-gp was saturated with SchiA speedily and SchiA couldn't stay at brain as long as plasma despite the concentration was considerable. Therefore, it is rationalized the SchiA passed through BBB caused by i.v. and it has been hypothesized that P-gp is the major determinant of SchiA pharmacokinetics.

A further data set relates to ERK1/2. Briefly: ERK phosphorylation after 6-OHDA, Western blot. Format: cell-based, Human. The procedure:
After treatment, SH-SY5Y cells were washed three times with PBS and then lysis with RIPA lysis buffer containing 1% PMSF and 1% Protease Inhibitor Cocktail and incubated for 30 min on ice. Cell lysates were centrifuged at 12,500 g for 20 min at 4° C. The supernatant was separated and the amount of protein was determined using the BCA protein assay kit (Thermo Scientific Pierce, USA). Protein samples (30 μg) were separated by SDS-PAGE (10% (w/v)) polyacrylamide gel and then transferred to a polyvinylidene difluoride (PVDF) membrane (Bio-Rad, Hercules, Calif.). Subsequently, the membrane was blocked with 5% (v/v) non-fat milk in PBST (PBS containing 0.1% Tween 20) for 1 h at room temperature. The blots were incubated overnight at 4° C. with primary antibodies. After three washes with PBST, the membranes were incubated with horseradish peroxidase-conjugated secondary antibodies (1:2000) in PBST with 5% non-fat milk for 1 h at room temperature. After repeated washes, proteins were visualized with an ECL advanced western blotting detection kit. Photographs of protein bands were taken by a Molecular Imager ChemiDoc XRS (Bio-Rad, Hercules, Calif.). Quantitative assessment of protein bands was done with Gel Doc™ XRS equipped with Quantity One software. […]

[2] abbreviates: 60 μM 12 h, then 400 μM 6-OHDA 4 h.

Consider 1 compound from patent US20150366839A1, “Schisantherin A for the treatment of neurodegenerative diseases” (priority 2014, published 2015).

`COc1cc2c(c(OC)c1OC)-c1c(cc3c(c1OC)OCO3)C[C@H](C)[C@](C)(O)[C@H]2OC(=O)c1ccccc1` [SchiA, Schisantherin A]: the “6-OHDA-induced reduction in p-Akt level” value in the data set on Akt (setting [2]) is recorded as “prevented the reduction in p-Akt level”. Besides, the “p-Akt level, compound alone” value in the data set with Akt (60 μM, without 6-OHDA) is on record as “did not change”. Further, the “concentration in brain as % of concentration in plasma” value in data set [1] (half an hour post-i.v. bolus injection) worked out at 54.5%. For the same compound, in data set [1] (i.v.), the “ability to pass the BBB in vivo” value is reported as “able to traverse the BBB in vivo”. Besides, in data set [1] (i.v., up to 6 h), the “detection in brain samples” value is reported as “wasn't detected”. Besides, the detection in brain entry in data set [1] (oral administration) is listed as “wasn't detected”. Moreover, in the data set on ERK1/2 (setting [2]), the “6-OHDA-induced reduction in ERK1/2 phosphorylation” value was “prevented the reduction in ERK1/2 phosphorylation”. Also, the “phosphorylated ERK1/2 level, compound alone” value in the data set on ERK1/2 (60 μM, without 6-OHDA) was “did not change”.
